# In ChEMBL document CHEMBL1150259, “Identification of Plasmodium falciparum spermidine synthase active site binders through structure-based virtual screening” (J Med Chem, 2008):
# Activity calls are given as the source filed them. The calls are words filed in the database; no cut-off is given here.
# Columns and labels:
# [1] = molecular target: T1, Spermidine synthase (Plasmodium falciparum) (UniProt Q9NFS5); experiment: Binding affinity to Plasmodium falciparum spermidine synthase by saturation transfer difference-NMR experiment
# T1 sequence (whole entry): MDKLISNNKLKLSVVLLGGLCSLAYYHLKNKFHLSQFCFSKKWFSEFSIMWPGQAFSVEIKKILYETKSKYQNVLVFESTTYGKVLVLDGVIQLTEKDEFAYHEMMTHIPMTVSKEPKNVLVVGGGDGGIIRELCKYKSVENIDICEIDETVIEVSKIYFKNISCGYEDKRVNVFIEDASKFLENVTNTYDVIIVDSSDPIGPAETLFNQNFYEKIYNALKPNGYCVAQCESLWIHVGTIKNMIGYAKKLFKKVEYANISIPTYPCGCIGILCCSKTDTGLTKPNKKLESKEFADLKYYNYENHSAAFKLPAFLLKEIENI
# [2] = molecular target: T1, Spermidine synthase (Plasmodium falciparum); experiment: Binding affinity to Plasmodium falciparum spermidine synthase by saturation transfer difference-NMR experiment relative to methylthioadenosine
# [3] = tested on: Plasmodium falciparum; experiment: Growth inhibition of Plasmodium falciparum; type: functional, organism-based
# [4] = molecular target: T2, Spermidine synthase (Plasmodium falciparum, UniProt Q9NFS5); experiment: Inhibition of Plasmodium falciparum spermidine synthase
# T2 sequence (Q9NFS5 whole entry): T1 sequence (whole entry)
Compound,Activity [1],other results
O=C(CSc1nccc(=O)[nH]1)NCc1ccco1,inactive,–
Nc1nnc(SCC(=O)Nc2cccc(Oc3ccccc3)c2)[nH]1,Active,Activity [2]: inactive
O=C(CSc1nnc[nH]1)Nc1nccs1,inactive,–
O=C1C=C(NCCc2c[nH]cn2)CC1,inactive,–
Cn1c(SCC(=O)c2ccc3[nH]c(=O)oc3c2)nnc1-c1ccncc1,inactive,–
CC1CCC(N)CC1 (centres undefined),–,IC50 [3]: 34 µM; IC50 [4]: 1.4 µM
O=C(CSc1cnn[nH]1)Nc1ncccn1,inactive,–
O=C(c1ccc2[nH]cnc2c1)N1CCN(C/C=C/c2ccccc2)CC1,Active,–
NCCCCCCCNC(=O)Cc1ncc(C(F)(F)F)cc1Cl,inactive,–
NCCCCCc1nc2ccccc2[nH]1,–,Activity [2]: Active
NC(=O)CSc1nc2ncnc(N)c2[nH]1,Active,Activity [2]: Active
O=C(C1CCCCN1)N1CCN(Cc2cccnc2)CC1 (centres undefined),inactive,–
NCCSC1CC(=O)N(c2ccc(F)cc2)C1=O (centres undefined),inactive,–
CCCCc1nnc(NC(=O)CSc2nnc[nH]2)s1,inactive,–
CSC[C@H]1O[C@@H](n2cnc3c(N)ncnc32)[C@H](O)[C@@H]1O [METHYLTHIOADENOSINE],–,IC50 [4]: 159 µM
N=c1c(N)c(O)ncn1CC(=O)c1ccc(I)cc1,inactive,–
Nc1nnc(SCC(=O)NCC2CN(Cc3ccccc3)CCO2)s1 (centres undefined),inactive,–
O=C1NC(=S)NC(=O)C1=CNCCc1cnc[nH]1,inactive,–
Nc1nnc(SCC(=O)NCc2ccc3c(c2)OCO3)[nH]1,inactive,–
Nc1nc(N)nc(SCC(=O)NCc2ccc(F)cc2)n1,inactive,–
NCCCCCc1nnc(SCC(=O)Nc2cccc(Cl)c2)o1,inactive,–
O=C(CSc1nnc[nH]1)c1ccc2c(c1)OCCO2,inactive,–
NC(=O)c1ncn([C@@H]2O[C@H](CO)[C@@H](O)[C@H]2O)n1,inactive,–
O=C(c1ccc2cn[nH]c2c1)N1CCN(c2ccccn2)CC1,inactive,–
Nc1ncnc2c1ncn2[C@@H]1O[C@H](CO)[C@@H](O)[C@H]1O,Active,Activity [2]: Active
